Laboratory results from ChEMBL document CHEMBL4680300, “Synthesis, biological evaluation, and NMR studies of 3-fluorinated derivatives of 3',4',5'-trihydroxyflavone and 3',4',5'-trimethoxyflavone” (Bioorg Med Chem Lett, 2021).
Values after ≈ are worked out from the molar mass of the structure shown. Active and inactive are the calls of the source. The rule behind the calls is not given here.

Columns and labels:
Neuron [1] = assay: Neuroprotective activity in Sprague-Dawley rat cortical neurons assessed as reduction in glutamate-induced cell death preincubated for 1 hr followed by glutamate stimulation and measured after 24 hrs by MTS assay; assay type: functional, tissue-based; details: time 25.0 hrs
[2] = Antioxidant activity assessed as DPPH radical scavenging activity incubated for 20 mins in dark conditions; assay type: functional
Neuron [3] = assay: Neuroprotective activity in Sprague-Dawley rat cortical neurons assessed as reduction in glutamate-induced reactive oxygen species level incubated for 1 hr by DCFDA fluorescence-based microplate reader relative to control; assay type: functional, tissue-based
[4] = Stability of the compound in DMSO assessed as formation of ortho-quinone intermediate in presence of DPPH measured by mass spectrometry; assay type: physicochemical
[5] = Stability of the compound in DMSO assessed as formation of ortho-quinone intermediate in presence of DPPH measured after 20 mins by NMR analysis; assay type: physicochemical

| SMILES | Activity (Neuron [1]) | EC50 [2] [µg/mL] | Activity (Neuron [3]) | Stabilty [4] | Stabilty [5] |
| --- | --- | --- | --- | --- | --- |
| C[C@]12N[C@H](Cc3ccccc31)c1ccccc12 | Active | – | – | – | – |
| COc1cc(-c2oc3ccccc3c(=O)c2F)cc(OC)c1OC | – | 37.14 (≈ 112 µM) | – | – | – |
| O=C1O[C@H]([C@@H](O)CO)C(O)=C1O [ASCORBIC ACID] | – | 0.16 (≈ 0.908 µM) | – | – | – |
| O=c1cc(-c2cc(O)c(O)c(O)c2)oc2ccccc12 | Active | 0.33 (≈ 1.22 µM) | – | – | – |
| O=c1c(F)c(-c2cc(O)c(O)c(O)c2)oc2ccccc12 | Active | 0.24 (≈ 0.833 µM) | Active | Unstable | Unstable |
| COc1cc(-c2cc(=O)c3ccccc3o2)cc(OC)c1OC | – | 71.66 (≈ 229 µM) | – | – | – |
